Consider 1 compound from PMC9102502, “The Influence of Selected Antipsychotic Drugs on Biochemical Aspects of Alzheimer’s Disease” (International Journal of Molecular Sciences, 2022).

In data set [1] the target is T1, human erythrocyte acetylcholinesterase (Homo sapiens, UniProt P22303).
T1 construct: solution of hemolyzed erythrocytes diluted 400-fold; from tissue; host or cells: hemolyzed erythrocytes from blood of healthy human donors
Briefly: AChE inhibition, modified Ellman's method. It is filed as biochemical. (Ellman's reagent forms a yellow product with free thiols.)

The target of data set [2] is T2, human plasma butyrylcholinesterase (Homo sapiens, UniProt P06276).
T2 construct: The solution of plasma 200-fold diluted with 0.9% NaCl; from tissue; host or cells: citrated plasma from blood of healthy human donors
Briefly: BuChE inhibition, modified Ellman's method. In kind it is biochemical. Particulars: experimental data; mean ± SD, n = 6–9; read-out: IC50 BuChE.

The target of data set [3] is T3, recombinant human β-amyloid (1–42) (Homo sapiens, UniProt P05067).
T3 construct: recombinant human β-amyloid (1–42; ultrapure); purchased Sigma-Aldrich (St. Louis, MO, USA)
In words: Beta-amyloid aggregation, Thioflavin T fluorescence. Particulars: 24 and 48 h; both tested concentrations. In kind it is biochemical. The gist of the method:
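Aβ42 (DMSO stock, pre-warmed 15 min at 37 °C) at 20 μmol/L final incubated with antipsychotics at TPC and 1/2 × TPC, with 5 µmol/L ThT added. Fluorescence (Ex/Em 440/484 nm, room temperature) read at 10, 30, 60, 90 min, 24 and 48 h; peptide-only control set as 100% aggregation.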

Data set [4] concerns human erythrocytes. Particulars: 80 μg/L, AAPH 50 mmol/L. How it is done: The blood samples were centrifuged (3000 rpm, 10 min, 20 °C, Micro 22 R centrifuge, Hettich Zentrifugen, Tuttlingen, Germany) to separate erythrocytes from the plasma and washed three times with 0.9% saline (NaCl). […] The erythrocytes were suspended in 0.9% saline. As control of basal hemolysis, erythrocytes were incubated with 0.9% NaCl. For total hemolysis control erythrocytes were incubated with 2.0% v/v Triton X-100. Incubation with Triton X-100 and K4[Fe(CN)6] (at concentration 50 g/L) was performed to control methemoglobin (MetHb) formation. Moreover, an antioxidant control containing ascorbic acid (AA) at a concentration of 10 µg/mL was prepared, while AAPH at a concentration of 50 mmol/L was an oxidizing agent. Antipsychotics at concentrations equaling their maximum therapeutic plasma concentrations (TPCmax), as well as 5-fold higher (5 × TPCmax) and 5-fold lower than TPCmax (1/5 × TPCmax), and the oxidizing agent AAPH at a concentration of 50 mmol/L, were added to 2% RBC suspension. Controls and tested samples were incubated at 37 °C. […] The percentage of hemolysis was calculated with the following formula:Hemolysis (%) = (Asample/Atotal hemolysis) × 100%(1) where Asample—absorbance of the test sample; Atotal hemolysis—the absorbance of the reference sample with 2% Triton X solution, corresponding to complete hemolysis.

Data set [5] has as its system human erythrocytes. In words: Methemoglobin formation in RBC with AAPH. Particulars: 5 h, AAPH control 61.9%. It is filed as cell-based. The procedure: The blood samples were centrifuged (3000 rpm, 10 min, 20 °C, Micro 22 R centrifuge, Hettich Zentrifugen, Tuttlingen, Germany) to separate erythrocytes from the plasma and washed three times with 0.9% saline (NaCl). […] The erythrocytes were suspended in 0.9% saline. As control of basal hemolysis, erythrocytes were incubated with 0.9% NaCl. For total hemolysis control erythrocytes were incubated with 2.0% v/v Triton X-100. Incubation with Triton X-100 and K4[Fe(CN)6] (at concentration 50 g/L) was performed to control methemoglobin (MetHb) formation. Moreover, an antioxidant control containing ascorbic acid (AA) at a concentration of 10 µg/mL was prepared, while AAPH at a concentration of 50 mmol/L was an oxidizing agent. Antipsychotics at concentrations equaling their maximum therapeutic plasma concentrations (TPCmax), as well as 5-fold higher (5 × TPCmax) and 5-fold lower than TPCmax (1/5 × TPCmax), and the oxidizing agent AAPH at a concentration of 50 mmol/L, were added to 2% RBC suspension. Controls and tested samples were incubated at 37 °C. […] For each measurement, 0.5 mL samples were taken from incubated Eppendorf tubes and centrifuged (3000 rpm, 10 min). […] The percentage of hemolysis was calculated with the following formula:Hemolysis (%) = (Asample/Atotal hemolysis) × 100%(1) where Asample—absorbance of the test sample; Atotal hemolysis—the absorbance of the reference sample with 2% Triton X solution, corresponding to complete hemolysis.

Data set [6] concerns the target T4, BuChE (Homo sapiens, UniProt P06276). Briefly: Synergism of antipsychotics with donepezil/rivastigmine (binary mixtures), BuChE.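 Further: combination index derived by median-effect analysis of combined drug effects on the cholinesterase, with values below 1 meaning synergism, exactly 1 additivity and above 1 antagonism.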 Particulars: ComboSyn.
Source text: In turn, the concentrations of antipsychotics were constant in every measurement, and were chosen on the basis of estimated therapeutic plasma concentrations.
Automatic simulation of synergism and antagonism at all doses or effect levels is possible by computer software, based on algorithms. Calculation of the combination index (CI) and isobologram analyses enable to quantitatively determine drug interactions, where CI < 1, =1 and >1 indicate synergism, additive effect and antagonism, respectively. […] The software also allowed us to display the dose–effect curve, the median–effect plot and the dose-reduction index (DRI) plot [36].
Data set [7] deals with T4, BuChE. In words: Kinetic parameters of enzymatic reaction (Hanes–Woolf), BuChE. In kind it is biochemical. Set-up: The solution of plasma 200-fold diluted with 0.9% NaCl; from tissue; host or cells: citrated plasma from blood of healthy human donors. How it is done:
Kinetic parameters were obtained on the basis of three individual experiments carried out on different biological materials. For this purpose, various concentrations of substrates (ATC and BTC) were used in experiments. The type of inhibition and kinetic parameters of enzymatic reactions were obtained by linear regression using the Hanes–Woolf equations.
AChE SI (selectivity index) was calculated by using the following formula: SI = IC50 of BuChE/IC50 of AChE. However, BuChE SI was defined as IC50 of AChE/IC50 of BuChE. Maximal velocity (Vmax) and the Michaelis constant (Km) were calculated with the use of linear regression—according to the Hanes–Woolf plot.

SMILES strings stand for the structures. “And” between values parts separate entries of the source, which are not always exact repeats. Identical values can stand only once. Like-named read-outs stand apart in the source and are kept apart here.

T4 sequence (P06276 29-602): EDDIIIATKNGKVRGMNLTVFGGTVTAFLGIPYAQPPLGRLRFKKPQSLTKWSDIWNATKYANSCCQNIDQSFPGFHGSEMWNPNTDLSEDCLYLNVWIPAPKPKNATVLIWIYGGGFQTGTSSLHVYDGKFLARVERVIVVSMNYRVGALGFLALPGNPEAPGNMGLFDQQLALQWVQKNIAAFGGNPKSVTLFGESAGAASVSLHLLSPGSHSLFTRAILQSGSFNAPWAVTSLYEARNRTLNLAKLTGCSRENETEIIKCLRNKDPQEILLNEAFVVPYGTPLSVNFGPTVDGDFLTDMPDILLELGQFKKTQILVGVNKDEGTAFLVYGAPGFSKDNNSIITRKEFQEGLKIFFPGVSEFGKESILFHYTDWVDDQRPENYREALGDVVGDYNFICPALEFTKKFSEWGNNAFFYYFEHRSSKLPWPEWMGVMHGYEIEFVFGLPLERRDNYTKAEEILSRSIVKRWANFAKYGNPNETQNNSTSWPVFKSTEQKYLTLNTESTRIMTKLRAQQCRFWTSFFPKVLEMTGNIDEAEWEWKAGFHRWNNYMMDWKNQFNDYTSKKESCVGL
T1 sequence (P22303 32-617 isoform P22303-2 limits assumed): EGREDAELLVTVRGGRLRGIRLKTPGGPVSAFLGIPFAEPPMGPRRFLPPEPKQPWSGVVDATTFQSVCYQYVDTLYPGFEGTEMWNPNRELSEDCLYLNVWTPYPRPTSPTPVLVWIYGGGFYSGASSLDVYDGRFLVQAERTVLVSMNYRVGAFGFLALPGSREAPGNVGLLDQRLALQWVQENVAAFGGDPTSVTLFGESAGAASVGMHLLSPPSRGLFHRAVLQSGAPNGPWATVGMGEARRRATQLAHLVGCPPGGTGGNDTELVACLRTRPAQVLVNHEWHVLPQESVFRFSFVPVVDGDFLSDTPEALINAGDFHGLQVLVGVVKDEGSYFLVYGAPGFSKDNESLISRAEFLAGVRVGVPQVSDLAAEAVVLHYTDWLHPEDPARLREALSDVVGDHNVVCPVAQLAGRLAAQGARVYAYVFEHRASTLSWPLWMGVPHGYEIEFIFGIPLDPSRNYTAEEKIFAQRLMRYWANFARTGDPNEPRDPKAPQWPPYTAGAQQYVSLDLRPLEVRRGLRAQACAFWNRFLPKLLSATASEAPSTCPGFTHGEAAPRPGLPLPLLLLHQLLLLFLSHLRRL
T2 sequence (P06276 29-602): as the sequence (P06276 29-602) above
T3 sequence (P05067 672-713 limits assumed): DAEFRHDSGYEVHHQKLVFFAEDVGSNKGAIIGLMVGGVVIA

In the case of `OCCOCCN1CCN(C2=Nc3ccccc3Sc3ccccc32)CC1` [Quetiapine, quetiapine], the AChE reaction velocity in data set [1] (over 4000 µg/L (two ends of the printed span), control 0.264 ± 0.014 A/min) was 0.257 ± 0.016 A/min and 0.241 ± 0.013 A/min. Moreover, the concentration for half-maximal inhibition (IC50) (usually the concentration at which inhibition is half-maximal) in data set [1] (theoretical values calculated on the basis of extrapolated plots) was more than 100 µM; in data set [2], 6.08 ± 1.63 µM. The “effect on Aβ aggregation after a longer incubation time” value in data set [3] is on record as “substantially inhibit”. The “RBCs hemolysis with AAPH” value was 23.9% in the data set on human erythrocytes [4] (5 h, AAPH control 53.4%) and 51.9% in the data set with human erythrocytes [4] (24 h, AAPH control 45.9%). Moreover, the figures for the “methemoglobin formation with AAPH” value in the data set with human erythrocytes [5] (80 μg/L) and in the data set with human erythrocytes [5] (400 μg/L) were 17.1% and 18.8%, respectively. Further, the “CI (combination index), BuChE” value at BuChE [6] (donepezil 2 μmol/L + antipsychotic at TPCmax) was determined as 0.64; at BuChE [6] (donepezil 5 μmol/L + antipsychotic at TPCmax) it was 0.64; at BuChE [6] (donepezil 10 μmol/L + antipsychotic at TPCmax) it was 0.71; at BuChE [6] (donepezil 20 μmol/L + antipsychotic at TPCmax), 0.75; on BuChE [6] (donepezil 50 μmol/L + antipsychotic at TPCmax) it was 0.85; on BuChE [6] (rivastigmine 0.05 μmol/L + antipsychotic at TPCmax), 2.24. Besides, on BuChE [6] (rivastigmine 0.1 μmol/L + antipsychotic at TPCmax), the “CI (combination index), BuChE” value worked out at 1.42. In addition, the entries for the “Vmax(i) BuChE” value on BuChE [7] (compound at its IC50) and at BuChE [7] (compound at ½ IC50) were 0.138 ± 0.058 A/min and 0.239 ± 0.026 A/min, respectively. On BuChE [7] (from Km(i), Vmax(i) vs Km, Vmax, mixed inhibition), the “type of inhibition of BuChE” value was “same type of inhibition”.
